Results: publication PMC5349910, “Discovery of BPR1K871, a quinazoline based, multi-kinase inhibitor for the treatment of AML and solid tumors: Rational design, synthesis, in vitro and in vivo evaluation” (Oncotarget, 2016)
pEC50, pIC50: −log10 of the molar value. Values after ≈ are worked out from the molar mass of the structure shown. “Also recorded” adds a separate entry of the source.

Legend:
AURKA = biological target: T1, AURKA (Homo sapiens, UniProt O14965); test: AURKA inhibition assay (Kinase-Glo); type: biochemical; conditions: mean of at least two independent experiments, within ±15%
T1 construct: recombinant GST-AURKA (residues Ser123-Ser401) containing the kinase domain; GST (N); made in house; host or cells: Sf9 insect cells
T1 sequence (O14965 123-401): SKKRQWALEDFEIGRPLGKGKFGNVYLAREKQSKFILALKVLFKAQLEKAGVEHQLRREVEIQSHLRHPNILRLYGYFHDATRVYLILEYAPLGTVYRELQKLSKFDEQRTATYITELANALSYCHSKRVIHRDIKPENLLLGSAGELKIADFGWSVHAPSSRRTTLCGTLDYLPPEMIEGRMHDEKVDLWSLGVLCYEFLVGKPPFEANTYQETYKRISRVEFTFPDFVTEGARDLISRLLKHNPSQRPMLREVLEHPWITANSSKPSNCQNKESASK
Experimental: AURKA assay was conducted as previously described. Briefly, the recombinant GST-AURKA (residues Ser123-Ser401) containing the kinase domain was expressed in Sf9 insect cells.
Following incubation, 50 μL Kinase-Glo Plus Reagent (Promega, Madison, WI, USA) was added, and the mixture was incubated at 25°C for 20 min.

FLT3^R834Q = FLT3^R834Q (Homo sapiens, UniProt P36888, R834Q); test: KINOMEScan, FLT3 R834Q; conditions: read-out: FLT3^R834Q % control
Mia-PaCa2 cells = test: Anti-proliferative activity, Mia-PaCa2; type: cell-based, human; conditions: supplement values ± SEM
ABL1^H396P = ABL1^H396P (Homo sapiens, UniProt P00519, H396P); test: KINOMEScan, ABL1 H396P; conditions: read-out: ABL1^H396P % control
Aqueous solubility = type: physicochemical
MOLM-13 cells = test: MTS cell viability assay, MOLM-13; type: cell-based, human; conditions: Homo sapiens, MOLM-13, 72 h, MTS, 72 h; AML-FLT3-ITD (heterozygous); supplement values ± SEM; read-out: MOLM-13 EC50
Experimental: The MTS cell viability assay was conducted as previously described. The MOLM-13 human leukemia cell line was obtained from the German Resource Centre for Biological Material (DSMZ, Braunschweig, Germany); the MV4-11 cell line was purchased from the American Type Culture Collection (ATCC, Manassas, VA, USA). […] To determine cell viability after drug treatment, assay for MOLM-13 and MV4-11 was performed by seeding 10000 cells per well in a 96-well culture plate. […] After 16 h, cells were then treated with vehicle or various concentrations of compound in medium for 72 h. Viable cells were quantified using the MTS method (Promega, Madison, WI, USA) according to the manufacturer's recommended protocol. Results were determined by measuring the absorbance at 490 nm using a plate reader (Victor2; PerkinElmer, Shelton, CT, USA).

[1] = system: Detroit 551 (human normal skin fibroblast cells); test: MTS cell viability assay, Detroit-551; type: cell-based; conditions: 72 h
Experimental: The MTS cell viability assay was conducted as previously described. The MOLM-13 human leukemia cell line was obtained from the German Resource Centre for Biological Material (DSMZ, Braunschweig, Germany); the MV4-11 cell line was purchased from the American Type Culture Collection (ATCC, Manassas, VA, USA). Both the leukemia cell lines were maintained in RPMI 1640 medium supplemented with 10% fetal bovine serum (FBS), 10 UmL^-1 penicillin, and […] streptomycin at 37°C and 5% CO2. The Detroit-551, COLO205, and Mia-PaCa2 cell lines were purchased from the American Type Culture Collection (ATCC, Manassas, VA, USA) and cultured according to instructions of ATCC. To determine cell viability after drug treatment, assay for MOLM-13 and MV4-11 was performed by seeding 10000 cells per well in a 96-well culture plate. Detroit-551, COLO205, and Mia-PaCa2 were seeded at density of 2500, 4000, and 3750 cells per well, respectively. After 16 h, cells were then treated with vehicle or various concentrations of compound in medium for 72 h. Viable cells were quantified using the MTS method (Promega, Madison, WI, USA) according to the manufacturer's recommended protocol. Results were determined by measuring the absorbance at 490 nm using a plate reader (Victor2; PerkinElmer, Shelton, CT, USA).

MOLM-13 tumor xenograft = test: MOLM-13 subcutaneous xenograft model; type: in vivo; conditions: nude mice, iv 1, 3 or 10 mg/kg; hydrochloride salt; p < 0.05
Experimental: Based on the potent in vitro anti-proliferative activity of BPR1K871, it was planned to investigate the in vivo efficacy. […] Subsequently, based on the PK study, we evaluated the acute toxicity of BPR1K871 in ICR mice (n = 3) by iv administration. […] Next, the antitumor activity of BPR1K871 was evaluated through IV route in MOLM-13 and MV4-11 xenograft models (Figure 5). For this, nude mice were inoculated subcutaneously with MOLM-13 and MV4-11 cells in the left flank. […] For MOLM-13 model, BPR1K871 was injected intravenously at 10 mg/kg daily for 5 days (on days 1–5); also BPR1K871 was intravenously administrated at 3 and 1 mg/kg once a day for two continuous weeks (on days 1–5 and 8–12). For MV4-11 model, BPR1K871 was intravenously administrated at 10, 3 and 1 mg/kg once a day for two continuous weeks (on days 1–5 and 8–12).

RET^M918T = RET^M918T (Homo sapiens, UniProt P07949, M918T); test: KINOMEScan, RET M918T; conditions: read-out: RET^M918T % control
Sequence of RET^M918T (P07949 29-1114 M918T): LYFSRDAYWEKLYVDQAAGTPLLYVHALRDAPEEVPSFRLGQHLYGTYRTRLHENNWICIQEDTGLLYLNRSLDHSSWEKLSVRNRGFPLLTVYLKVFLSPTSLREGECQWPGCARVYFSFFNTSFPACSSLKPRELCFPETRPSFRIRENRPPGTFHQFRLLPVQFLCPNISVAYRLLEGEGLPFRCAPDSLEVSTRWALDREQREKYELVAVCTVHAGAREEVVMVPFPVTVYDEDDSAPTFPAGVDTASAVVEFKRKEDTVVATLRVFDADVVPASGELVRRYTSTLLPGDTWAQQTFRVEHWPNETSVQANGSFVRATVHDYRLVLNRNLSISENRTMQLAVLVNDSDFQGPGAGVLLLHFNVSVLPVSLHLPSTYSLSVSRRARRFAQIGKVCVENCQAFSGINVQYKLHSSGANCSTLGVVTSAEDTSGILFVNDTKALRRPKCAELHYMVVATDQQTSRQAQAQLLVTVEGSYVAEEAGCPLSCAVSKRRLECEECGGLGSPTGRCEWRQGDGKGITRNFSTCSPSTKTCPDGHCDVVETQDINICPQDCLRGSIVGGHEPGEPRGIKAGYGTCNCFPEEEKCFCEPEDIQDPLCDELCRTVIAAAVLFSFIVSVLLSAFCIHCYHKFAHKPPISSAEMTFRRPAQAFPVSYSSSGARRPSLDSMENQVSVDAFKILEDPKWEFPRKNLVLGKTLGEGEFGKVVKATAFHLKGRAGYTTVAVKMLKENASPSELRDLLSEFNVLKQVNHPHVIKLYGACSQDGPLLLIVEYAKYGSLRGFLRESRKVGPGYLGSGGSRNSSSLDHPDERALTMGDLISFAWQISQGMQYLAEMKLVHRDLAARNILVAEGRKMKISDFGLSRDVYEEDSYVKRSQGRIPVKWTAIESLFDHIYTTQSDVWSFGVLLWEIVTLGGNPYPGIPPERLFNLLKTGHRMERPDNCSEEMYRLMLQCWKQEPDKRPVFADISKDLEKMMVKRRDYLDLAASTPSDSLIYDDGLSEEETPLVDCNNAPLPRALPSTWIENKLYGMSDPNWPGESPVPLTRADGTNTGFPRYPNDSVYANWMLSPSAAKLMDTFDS

[2] = Microsomal stability assay, mouse; type: in vitro ADME
CL-97 cells = test: Anti-proliferative activity, CL-97; type: cell-based, human; conditions: CL97; Human Lung Cancer; supplement values ± SEM; read-out: CL-97 EC50
MKN-45 cells = test: Anti-proliferative activity, MKN-45; type: cell-based; conditions: Human Gastric Cancer

Text for Mia-PaCa2 tumors: For this, COLO205 and Mia-PaCa2 xenograft models were established through inoculating nude mice subcutaneously with corresponding cancer cells. When the tumor size reached approximately 200 mm^3, the hydrochloride salt of BPR1K871 dissolved in the formulation was intravenously administered to suppress the growth of the subcutaneously xenografted tumors.
Nude mice (n = 8–9 per group) were inoculated subcutaneously with Mia-PaCa2 (1 × 10^6 per flank) or COLO205 cells (1 × 10^6 per flank). When the tumor size reached ∼200 mm^3, animals were grouped and treated with BPR1K871 at 20 mg/kg dose in a 2-week treatment period as indicated. […] Tumor volumes were measured and calculated with the formula length × width^2/2 after initiation of treatments. Tumor size and animal body weight were measured twice a week after tumor cell inoculation. The significant difference between drug treatment and vehicle control were analyzed using one-way ANOVA and Student-Newman-Keuls test. The level of statistical significance was set at P<0.05.

Compound: CN(C)CCCOc1ccc2c(NCCc3cnc(NC(=O)Nc4cccc(Cl)c4)s3)ncnc2c1 [BPR1K871, 1-(3-Chlorophenyl)-3-(5-(2-((7-(3-(dimethylamino)propoxy)quinazolin-4-yl)amino)ethyl)thiazol-2-yl)urea]
- pIC50 (AURKA): 7.66
- remaining binding at 1 µM (FLT3^R834Q): < 5.2%
- TGI ± SD (Mia-PaCa2 tumors; Mia-PaCa2, 20 mg/kg iv once a day, days 1–5 and 8–12, day 29, n = 9): 91 ± 10%
- body weight loss (Mia-PaCa2 tumors; Mia-PaCa2 model, 20 mg/kg iv): ≤ 15%
- mortality during the study (Mia-PaCa2 tumors; Mia-PaCa2 model, 20 mg/kg iv): no mice died
- pEC50 (Mia-PaCa2 cells; Homo sapiens, MIA PaCa-2, Human Pancreatic Cancer): > 7.00
- pEC50 (Mia-PaCa2 cells; Human Pancreatic Cancer): 7.03
- remaining binding at 1 µM (ABL1^H396P): < 4.4%
- solubility (Aqueous solubility; in water): 0.124 µg/mL (≈ 0.236 µM)
- improvement of aqueous solubility in pH ≤ 5.2 buffer solution compared to water (Aqueous solubility; pH ≤ 5.2 buffer solution vs water): up to 4000 fold
- pEC50 (MOLM-13 cells): ~8.30
- pEC50 [1]: 5.40
- growth / volume of MOLM-13 tumor xenograft vs vehicle (MOLM-13 tumor xenograft): significantly reduced; also recorded: inhibited
- remaining binding at 1 µM (RET^M918T): < 0.5%
- microsomal stability, remaining at 30 min [2]: > 30%
- pEC50 (CL-97 cells): 5.54
- pEC50 (MKN-45 cells): 6.45
